According to patent EP4722207A1, “OXOISOINDOLINYL-SUBSTITUTED TETRAHYDROPYRIMIDINEDIONE DERIVATIVE AND USE THEREOF” (Gluetacs Therapeutics (Shanghai) Co., Ltd., priority 2023, dated 2024):

Columns and labels:
Type in all cases: cell-based
Conditions in all cases: compounds at 50 nM and 500 nM, 24 hours
[1] = target: T1, IKZF3 (Homo sapiens, UniProt Q96SW2+Q9UKT9); assay: Western-blot assay, substrate protein degradation in hPBMCs: IKZF3
T1 construct: effects of the compounds of the present disclosure on the expression of target proteins in cells; endogenous in cells; host or cells: human PBMCs (hPBMCs)
T1 sequence (Q9UKT9 whole entry): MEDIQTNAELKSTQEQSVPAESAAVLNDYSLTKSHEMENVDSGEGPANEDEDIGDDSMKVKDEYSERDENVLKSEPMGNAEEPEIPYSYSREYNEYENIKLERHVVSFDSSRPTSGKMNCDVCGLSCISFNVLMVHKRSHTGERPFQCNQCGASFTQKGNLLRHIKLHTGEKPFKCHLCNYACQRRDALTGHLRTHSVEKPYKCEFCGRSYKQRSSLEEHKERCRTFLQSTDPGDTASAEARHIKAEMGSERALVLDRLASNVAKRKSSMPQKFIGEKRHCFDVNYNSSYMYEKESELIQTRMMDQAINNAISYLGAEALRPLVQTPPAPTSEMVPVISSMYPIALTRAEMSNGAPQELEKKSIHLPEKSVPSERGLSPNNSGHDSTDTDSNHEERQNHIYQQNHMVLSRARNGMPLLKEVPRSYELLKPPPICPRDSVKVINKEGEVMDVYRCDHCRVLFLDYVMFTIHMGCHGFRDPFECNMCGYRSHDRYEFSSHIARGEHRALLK
T1 sequence (Q96SW2 whole entry): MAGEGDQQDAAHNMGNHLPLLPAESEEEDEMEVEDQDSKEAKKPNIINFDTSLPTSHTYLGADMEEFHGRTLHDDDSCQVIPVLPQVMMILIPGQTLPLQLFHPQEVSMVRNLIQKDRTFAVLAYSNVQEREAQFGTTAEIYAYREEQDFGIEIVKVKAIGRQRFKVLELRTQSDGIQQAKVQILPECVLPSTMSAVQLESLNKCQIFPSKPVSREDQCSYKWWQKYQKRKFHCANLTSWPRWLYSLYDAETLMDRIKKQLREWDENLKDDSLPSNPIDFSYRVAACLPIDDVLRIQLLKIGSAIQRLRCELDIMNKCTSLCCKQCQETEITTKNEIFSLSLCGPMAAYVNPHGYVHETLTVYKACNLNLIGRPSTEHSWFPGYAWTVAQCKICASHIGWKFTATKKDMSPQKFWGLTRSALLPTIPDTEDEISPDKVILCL
T1 sequence (Q16531 whole entry partner): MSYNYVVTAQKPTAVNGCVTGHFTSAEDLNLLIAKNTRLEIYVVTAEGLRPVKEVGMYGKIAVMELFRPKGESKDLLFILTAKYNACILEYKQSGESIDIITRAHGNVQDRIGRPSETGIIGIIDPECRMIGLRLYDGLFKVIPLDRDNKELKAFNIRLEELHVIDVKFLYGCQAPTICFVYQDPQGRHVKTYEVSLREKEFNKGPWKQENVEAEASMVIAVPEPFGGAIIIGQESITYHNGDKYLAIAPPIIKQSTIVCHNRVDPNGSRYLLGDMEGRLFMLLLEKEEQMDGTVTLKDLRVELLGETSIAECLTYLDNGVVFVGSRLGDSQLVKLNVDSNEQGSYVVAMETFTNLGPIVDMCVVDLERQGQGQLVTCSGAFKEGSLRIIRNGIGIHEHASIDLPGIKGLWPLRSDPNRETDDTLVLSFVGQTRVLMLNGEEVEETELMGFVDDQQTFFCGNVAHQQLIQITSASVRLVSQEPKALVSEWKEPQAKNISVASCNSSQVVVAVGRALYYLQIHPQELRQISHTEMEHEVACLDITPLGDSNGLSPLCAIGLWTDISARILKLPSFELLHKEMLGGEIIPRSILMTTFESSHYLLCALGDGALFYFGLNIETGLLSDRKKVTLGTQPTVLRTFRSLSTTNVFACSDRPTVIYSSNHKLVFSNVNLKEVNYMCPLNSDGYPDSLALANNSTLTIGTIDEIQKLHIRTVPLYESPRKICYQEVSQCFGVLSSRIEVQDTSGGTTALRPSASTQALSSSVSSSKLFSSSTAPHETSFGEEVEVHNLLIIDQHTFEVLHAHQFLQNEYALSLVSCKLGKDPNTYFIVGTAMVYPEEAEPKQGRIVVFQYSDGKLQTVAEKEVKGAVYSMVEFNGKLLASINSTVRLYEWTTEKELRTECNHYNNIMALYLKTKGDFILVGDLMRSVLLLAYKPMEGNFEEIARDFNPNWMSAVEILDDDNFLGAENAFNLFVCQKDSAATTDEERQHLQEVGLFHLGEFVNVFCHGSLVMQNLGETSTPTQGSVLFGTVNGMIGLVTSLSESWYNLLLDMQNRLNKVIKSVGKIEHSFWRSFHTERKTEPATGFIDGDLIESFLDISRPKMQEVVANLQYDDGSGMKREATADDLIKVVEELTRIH

[2] = target: T2, IKZF1 (Homo sapiens, UniProt Q13422+Q96SW2); assay: Western-blot assay, substrate protein degradation in hPBMCs: IKZF1
T2 construct: effects of the compounds of the present disclosure on the expression of target proteins in cells; endogenous in cells; host or cells: human PBMCs (hPBMCs)

[3] = target: T3, WEE1 (Homo sapiens, UniProt P30291+Q96SW2); assay: Western-blot assay, substrate protein degradation in hPBMCs: WEE1
T3 construct: effects of the compounds of the present disclosure on the expression of target proteins in cells; endogenous in cells; host or cells: human PBMCs (hPBMCs)
T3 sequence (P30291 whole entry): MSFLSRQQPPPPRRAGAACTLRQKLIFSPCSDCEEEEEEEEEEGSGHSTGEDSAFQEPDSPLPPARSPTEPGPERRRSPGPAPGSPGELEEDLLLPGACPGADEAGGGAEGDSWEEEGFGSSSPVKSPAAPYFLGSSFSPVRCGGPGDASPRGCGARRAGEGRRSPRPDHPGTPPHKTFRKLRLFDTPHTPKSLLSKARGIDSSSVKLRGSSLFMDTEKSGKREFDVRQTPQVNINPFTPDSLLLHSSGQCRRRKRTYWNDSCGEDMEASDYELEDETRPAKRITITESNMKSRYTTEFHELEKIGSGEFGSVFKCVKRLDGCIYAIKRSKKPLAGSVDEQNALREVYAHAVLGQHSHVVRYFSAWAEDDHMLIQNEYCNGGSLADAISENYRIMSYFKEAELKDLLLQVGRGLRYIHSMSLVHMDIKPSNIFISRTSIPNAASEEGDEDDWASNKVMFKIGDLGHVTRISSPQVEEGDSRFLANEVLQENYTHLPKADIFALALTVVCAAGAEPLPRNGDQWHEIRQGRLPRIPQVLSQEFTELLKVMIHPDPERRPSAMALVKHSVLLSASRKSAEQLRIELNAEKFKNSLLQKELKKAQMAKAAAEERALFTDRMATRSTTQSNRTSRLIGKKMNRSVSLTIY
T3 sequence (Q96SW2 whole entry): as the sequence (Q96SW2 whole entry) above
T3 sequence (Q16531 whole entry partner): as the sequence (Q16531 whole entry partner) above

[4] = target: T4, GSPT1 (Homo sapiens, UniProt P15170+Q96SW2); assay: Western-blot assay, substrate protein degradation in hPBMCs: GSPT1
T4 construct: effects of the compounds of the present disclosure on the expression of target proteins in cells; endogenous in cells; host or cells: human PBMCs (hPBMCs)
T4 sequence (P15170 whole entry): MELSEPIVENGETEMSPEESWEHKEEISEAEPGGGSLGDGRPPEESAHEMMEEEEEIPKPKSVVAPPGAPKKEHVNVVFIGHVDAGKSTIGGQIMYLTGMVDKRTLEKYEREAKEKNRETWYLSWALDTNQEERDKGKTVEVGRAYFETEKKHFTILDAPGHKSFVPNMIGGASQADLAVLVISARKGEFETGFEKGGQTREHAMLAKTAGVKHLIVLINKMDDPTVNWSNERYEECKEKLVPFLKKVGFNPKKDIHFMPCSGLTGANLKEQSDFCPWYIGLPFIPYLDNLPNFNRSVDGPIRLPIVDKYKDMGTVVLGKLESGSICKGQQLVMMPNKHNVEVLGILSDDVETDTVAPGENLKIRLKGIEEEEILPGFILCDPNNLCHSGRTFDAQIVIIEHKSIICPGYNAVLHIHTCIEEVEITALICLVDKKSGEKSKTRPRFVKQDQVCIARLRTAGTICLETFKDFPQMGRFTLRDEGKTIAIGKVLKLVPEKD
T4 sequence (Q96SW2 whole entry): as the sequence (Q96SW2 whole entry) above
T4 sequence (Q16531 whole entry partner): as the sequence (Q16531 whole entry partner) above

[5] = target: T5, IKZF2 (Homo sapiens, UniProt Q96SW2+Q9UKS7); assay: Western-blot assay, substrate protein degradation in hPBMCs: IKZF2
T5 construct: effects of the compounds of the present disclosure on the expression of target proteins in cells; endogenous in cells; host or cells: human PBMCs (hPBMCs)
T5 sequence (Q9UKS7 whole entry): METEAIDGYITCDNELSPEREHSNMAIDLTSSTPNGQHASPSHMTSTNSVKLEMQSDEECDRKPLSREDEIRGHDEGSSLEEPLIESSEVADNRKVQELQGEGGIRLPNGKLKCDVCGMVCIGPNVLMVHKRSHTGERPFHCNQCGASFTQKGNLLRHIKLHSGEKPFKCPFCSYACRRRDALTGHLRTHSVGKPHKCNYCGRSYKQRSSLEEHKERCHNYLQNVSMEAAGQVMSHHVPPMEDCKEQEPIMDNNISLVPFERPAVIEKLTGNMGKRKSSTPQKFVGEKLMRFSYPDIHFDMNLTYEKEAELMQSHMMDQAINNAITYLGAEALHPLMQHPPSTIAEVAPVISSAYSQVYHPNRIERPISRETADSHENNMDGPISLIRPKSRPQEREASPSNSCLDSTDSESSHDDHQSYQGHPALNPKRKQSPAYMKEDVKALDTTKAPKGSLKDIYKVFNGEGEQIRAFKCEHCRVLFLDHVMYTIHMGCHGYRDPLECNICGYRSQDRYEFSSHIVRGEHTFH
T5 sequence (Q96SW2 whole entry): as the sequence (Q96SW2 whole entry) above
T5 sequence (Q16531 whole entry partner): as the sequence (Q16531 whole entry partner) above

[6] = target: T6, CK1α (Homo sapiens, UniProt P48729+Q96SW2); assay: Western-blot assay, substrate protein degradation in hPBMCs: CK1α
T6 construct: effects of the compounds of the present disclosure on the expression of target proteins in cells; endogenous in cells; host or cells: human PBMCs (hPBMCs)
T6 sequence (P48729 whole entry): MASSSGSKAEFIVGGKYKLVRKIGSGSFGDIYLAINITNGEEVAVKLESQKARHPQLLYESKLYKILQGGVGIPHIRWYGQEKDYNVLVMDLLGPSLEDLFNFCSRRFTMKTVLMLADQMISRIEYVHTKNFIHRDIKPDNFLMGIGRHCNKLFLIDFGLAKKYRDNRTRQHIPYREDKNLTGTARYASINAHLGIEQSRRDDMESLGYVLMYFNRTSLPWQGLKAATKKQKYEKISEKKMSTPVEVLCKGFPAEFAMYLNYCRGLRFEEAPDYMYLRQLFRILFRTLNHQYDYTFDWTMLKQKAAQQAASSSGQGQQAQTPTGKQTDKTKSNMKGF
T6 sequence (Q96SW2 whole entry): as the sequence (Q96SW2 whole entry) above
T6 sequence (Q16531 whole entry partner): as the sequence (Q16531 whole entry partner) above

SMILES	IKZF3 substrate protein remaining % [1]	IKZF1 substrate protein remaining % [2]	WEE1 substrate protein remaining % [3]	GSPT1 substrate protein remaining % [4]	IKZF2 substrate protein remaining % [5]	CK1α substrate protein remaining % [6]
O=C1CCN(N2C(=O)c3ccc(CN4C5CC4CN(c4cccc(Cl)c4Cl)C5)cc3C2=O)C(=O)N1 [GT-05251, 5-((3-(2,3-dichlorophenyl)-3,6-diazabicyclo[3.1.1]heptan-6-yl)methyl)-2-(2,4-dioxotetrahydropyrimidin-1(2H)-yl)isoindoline-1,3-dione]	B ("B" is defined as 80%< substrate protein remaining %≤ 100%)	B ("B" is defined as 80%< substrate protein remaining %≤ 100%)	B ("B" is defined as 80%< substrate protein remaining %≤ 100%)	B ("B" is defined as 80%< substrate protein remaining %≤ 100%)	A ("A" is defined as 0% ≤ substrate protein remaining % ≤ 80%)	B ("B" is defined as 80%< substrate protein remaining %≤ 100%)
O=C1CCN(N2C(=O)c3ccc(CN4CCn5c(nnc5C(F)(F)F)C4)cc3C2=O)C(=O)N1 [GT-05253, 2-(2,4-dioxotetrahydropyrimidin-1(2H)-yl)-5-((3-(trifluoromethyl)-5,6-dihydro-[1,2,4]triazolo[4,3-a]pyrazin-7(8H)-yl)methyl)isoindoline-1,3-dione]	B ("B" is defined as 80%< substrate protein remaining %≤ 100%)	B ("B" is defined as 80%< substrate protein remaining %≤ 100%)	B ("B" is defined as 80%< substrate protein remaining %≤ 100%)	A ("A" is defined as 0% ≤ substrate protein remaining % ≤ 80%)	B ("B" is defined as 80%< substrate protein remaining %≤ 100%)	B ("B" is defined as 80%< substrate protein remaining %≤ 100%)
O=C1CCN(N2C(=O)c3ccc(CN4CCc5sccc5C4)cc3C2=O)C(=O)N1 [GT-05254, 5-((6,7-dihydrothieno[3,2-c]pyridin-5(4H)-yl)methyl)-2-(2,4-dioxotetrahydropyrimidin-1(2H)-yl)isoindoline-1,3-dione]	B ("B" is defined as 80%< substrate protein remaining %≤ 100%)	B ("B" is defined as 80%< substrate protein remaining %≤ 100%)	B ("B" is defined as 80%< substrate protein remaining %≤ 100%)	A ("A" is defined as 0% ≤ substrate protein remaining % ≤ 80%)	B ("B" is defined as 80%< substrate protein remaining %≤ 100%)	B ("B" is defined as 80%< substrate protein remaining %≤ 100%)
O=C1CCN(N2C(=O)c3ccc(CN4CCC(c5c[nH]c6cc(F)ccc56)CC4)cc3C2=O)C(=O)N1 [GT-05259, 2-(2,4-dioxotetrahydropyrimidin-1(2H)-yl)-5-((4-(6-fluoro-1H-indol-3-yl)piperidin-1-yl)methyl)isoindoline-1,3-dione]	B ("B" is defined as 80%< substrate protein remaining %≤ 100%)	A ("A" is defined as 0% ≤ substrate protein remaining % ≤ 80%)	B ("B" is defined as 80%< substrate protein remaining %≤ 100%)	A ("A" is defined as 0% ≤ substrate protein remaining % ≤ 80%)	A ("A" is defined as 0% ≤ substrate protein remaining % ≤ 80%)	B ("B" is defined as 80%< substrate protein remaining %≤ 100%)
O=C1CCN(N2C(=O)c3ccc(CN4CCC(N5CCc6cc(F)ccc65)CC4)cc3C2=O)C(=O)N1 [GT-05260, 2-(2,4-dioxotetrahydropyrimidin-1(2H)-yl)-5-((4-(5-fluoroindolin-1-yl)piperidin-1-yl)methyl)isoindoline-1,3-dione]	B ("B" is defined as 80%< substrate protein remaining %≤ 100%)	A ("A" is defined as 0% ≤ substrate protein remaining % ≤ 80%)	A ("A" is defined as 0% ≤ substrate protein remaining % ≤ 80%)	B ("B" is defined as 80%< substrate protein remaining %≤ 100%)	A ("A" is defined as 0% ≤ substrate protein remaining % ≤ 80%)	B ("B" is defined as 80%< substrate protein remaining %≤ 100%)
O=C1CCN(N2C(=O)c3ccc(CN4CC=C(c5ccnc6cc(F)ccc56)CC4)cc3C2=O)C(=O)N1 [GT-05261, 2-(2,4-dioxotetrahydropyrimidin-1(2H)-yl)-5-((4-(7-fluoroquinolin-4-yl)-3,6-dihydropyridin-1(2H)-yl)methyl)isoindoline-1,3-dione]	B ("B" is defined as 80%< substrate protein remaining %≤ 100%)	B ("B" is defined as 80%< substrate protein remaining %≤ 100%)	B ("B" is defined as 80%< substrate protein remaining %≤ 100%)	B ("B" is defined as 80%< substrate protein remaining %≤ 100%)	A ("A" is defined as 0% ≤ substrate protein remaining % ≤ 80%)	B ("B" is defined as 80%< substrate protein remaining %≤ 100%)
O=C1CCN(N2C(=O)c3ccc(CN4CCN(C(c5ccccc5)c5ccccc5)CC4)cc3C2=O)C(=O)N1 [GT-05267, 5-((4-benzhydrylpiperazin-1-yl)methyl)-2-(2,4-dioxotetrahydropyrimidin-1(2H)-yl)isoindoline-1,3-dione]	A ("A" is defined as 0% ≤ substrate protein remaining % ≤ 80%)	B ("B" is defined as 80%< substrate protein remaining %≤ 100%)	B ("B" is defined as 80%< substrate protein remaining %≤ 100%)	A ("A" is defined as 0% ≤ substrate protein remaining % ≤ 80%)	B ("B" is defined as 80%< substrate protein remaining %≤ 100%)	A ("A" is defined as 0% ≤ substrate protein remaining % ≤ 80%)
O=C1CCN(N2C(=O)c3ccc(CN4CCN(C(c5ccc(F)cc5)c5ccc(F)cc5)CC4)cc3C2=O)C(=O)N1 [GT-05268, 5-((4-(bis(4-fluorophenyl)methyl)piperazin-1-yl)methyl)-2-(2,4-dioxotetrahydropyrimidin-1(2H)-yl)isoindoline-1,3-dione]	A ("A" is defined as 0% ≤ substrate protein remaining % ≤ 80%)	B ("B" is defined as 80%< substrate protein remaining %≤ 100%)	B ("B" is defined as 80%< substrate protein remaining %≤ 100%)	A ("A" is defined as 0% ≤ substrate protein remaining % ≤ 80%)	B ("B" is defined as 80%< substrate protein remaining %≤ 100%)	A ("A" is defined as 0% ≤ substrate protein remaining % ≤ 80%)
O=C1CCN(N2C(=O)c3ccc(CN4CCN(C(c5ccc(Cl)cc5)c5ccc(Cl)cc5)CC4)cc3C2=O)C(=O)N1 [GT-05269, 5-((4-(bis(4-chlorophenyl)methyl)piperazin-1-yl)methyl)-2-(2,4-dioxotetrahydropyrimidin-1(2H)-yl)isoindoline-1,3-dione]	B ("B" is defined as 80%< substrate protein remaining %≤ 100%)	B ("B" is defined as 80%< substrate protein remaining %≤ 100%)	B ("B" is defined as 80%< substrate protein remaining %≤ 100%)	A ("A" is defined as 0% ≤ substrate protein remaining % ≤ 80%)	B ("B" is defined as 80%< substrate protein remaining %≤ 100%)	A ("A" is defined as 0% ≤ substrate protein remaining % ≤ 80%)
Cc1nc(C2CCN(Cc3ccc4c(c3)C(=O)N(N3CCC(=O)NC3=O)C4=O)CC2)c2ccsc2n1 [GT-05272, 2-(2,4-dioxotetrahydropyrimidin-1(2H)-yl)-5-((4-(2-methylthieno[2,3-d]pyrimidin-4-yl)piperidin-1-yl)methyl)isoindoline-1,3-dione]	B ("B" is defined as 80%< substrate protein remaining %≤ 100%)	B ("B" is defined as 80%< substrate protein remaining %≤ 100%)	B ("B" is defined as 80%< substrate protein remaining %≤ 100%)	B ("B" is defined as 80%< substrate protein remaining %≤ 100%)	A ("A" is defined as 0% ≤ substrate protein remaining % ≤ 80%)	B ("B" is defined as 80%< substrate protein remaining %≤ 100%)
Cc1sc2ncnc(C3=CCN(Cc4ccc5c(c4)C(=O)N(N4CCC(=O)NC4=O)C5=O)CC3)c2c1C [GT-05273, 5-((4-(5,6-dimethylthieno[2,3-d]pyrimidin-4-yl)-3,6-dihydropyridin-1(2H)-yl)methyl)-2-(2,4-dioxotetrahydropyrimidin-1(2H)-yl)isoindoline-1,3-dione]	B ("B" is defined as 80%< substrate protein remaining %≤ 100%)	B ("B" is defined as 80%< substrate protein remaining %≤ 100%)	B ("B" is defined as 80%< substrate protein remaining %≤ 100%)	B ("B" is defined as 80%< substrate protein remaining %≤ 100%)	A ("A" is defined as 0% ≤ substrate protein remaining % ≤ 80%)	B ("B" is defined as 80%< substrate protein remaining %≤ 100%)
